Measured values reported in patent US12685775B2, “Oligonucleotides with nucleoside analogs” (Sirnaomics, Inc., priority 2019, dated 2026).
Entries after “also recorded” stand apart in the source; their conditions may differ. Like-named read-outs stand apart in the source and are kept apart here.

Legend:
Format in all cases: cell-based
BxPC3 cells [1] = assay: BxPC3 cell viability after 72 hrs treatment, CTG2 reagent (Example 1); conditions: Homo sapiens, BXPC-3, BxPC3, 72 h
Procedure: BxPC3 cells were seeded in two 384-well plates at 500 cells/well. On the next day cells were treated with various concentrations of CID2A, CID2S, CID4 siRNAs (formulated with Lipofectamine RNAiMAX) or gemcitabine (0.1-1000 nM) for 72 hrs. After incubation at 37° C. for 72 hrs, the number of viable cells was assessed using CTG2 reagent. Non-treated cells were set as 100%.

[2] = test system: BxPC3 pancreatic cancer cell; assay: cells; conditions: for IC50: BxPC3, 120 h exposure, read-out: IC50, cell viability
Procedure: The siRNA sequences shown in Table 2 were tested for efficacy and potency against BxPC3 pancreatic cancer cell viability after 120 h exposure.

BxPC3 cells [3] = assay: BxPC3 cell viability 96 h after transfection/treatment, Cell Titer Glo (Examples 2 and 3); conditions: for IC50: read-out: IC50, inhibition of cell viability; for inhibition in cell viability at 0.1 nM: BxPC3, 0.1 nM, GEM-modified siRNAs
Procedure: (§1) Pancreatic cancer BxPC3 cells were seeded at 1000 cells/ml and grown as monolayers in 384 well plates. The cells were transfected with the siRNAs indicated against CHK1 or Rad17 using Lipofectamine (ThermoFisher) or were treated with gemcitabine at the concentrations indicated on the X axis. After a 96 h incubation at 37° C. with 5% CO2, cell viability was determined using Cell Titer Glo (Perkin Elmer) by monitoring the luminescence signal produced by the reagent in a Perkin Elmer Envision plate reader equipped with Ultrasensitive luminescence detection optics. From the figure we can see that gemcitabine (GEM) produces a dose-dependent inhibition of cell viability with an IC50 of ~6 nM and maximal efficacy of >80% cell killing. A 25mer blunt ended siRNA against RAD17 produced a dose dependent inhibition in cell viability with a maximum efficacy at only 60% reduction in cell viability and an IC50 of ~5 nM. […] The IC50 for the latter siRNA was similar to that for the Azorsa sequence (~0.3 nM).
SiRNAs were synthesized with gemcitabine nucleotide amidites added at the 3′ end of each of the Sense strands for the siRNA sequences indicated. SiRNAs were transfected into the cells and incubated as detailed in FIG. 1. Maximal efficacy of all sequences was now improved to >95% inhibition of cell viability at concentrations above 10 nM. […] The gemcitabine nucleotides was examined to see if it could replace the Cytidine nucleotides within the siRNA sequence. […] FIGS. 12a-12d show the effect of adding 2 gemcitabine nucleotides at the 3′ end of the Sense strand of each siRNA on potency and efficacy.

MiaPaca-2 = MiaPaca-2 cell viability, 96 h exposure (Examples 8 and 9); conditions: for maximal inhibition of cell viability: 96 h
Procedure: as §1
Using gemcitabine or the same unmodified siRNAs and exposure time (96 h) as used against BxPC3 cells (FIG. 1), we studied the effect on another pancreatic cancer cell line—MiaPaca-2.

BxPC3 cells [4] = assay: BxPC3 cell viability after 120 h exposure, Cell Titer Glo (Example 4, polyGEM constructs)
Procedure: BxPC3 cells seeded in 384 well plates at 1000 cells/well were transfected with siRNA constructs or exposed to gemcitabine at the concentrations indicated in the figure. The samples tested were gemcitabine alone (GEM), the unmodified 19mer siRNA against CHK1 (CHK-AZ) and the same sequences of the siRNA but with either 2 (poly-2), 4 (poly-4) or 6 (poly-6) gemcitabine nucleotides added at the 3′ end of the Sense strand prior to annealing with the same antisense strand. After 120 h exposure to the various agents, the cell viability was determined by addition of Cell Titer Glo (PE), plates were shaken for 10-20 mins and then luminescence signal correlating with cell viability was determined in a PE Envision plate reader.
It was reasoned that, since such an improvement in efficacy against pancreatic cancer cell viability was obtained when adding 2 GEM nucleotides onto the SS of an siRNA, then adding additional GEMs would further improve the efficacy and/or potency of the siRNAs. To this end the unmodified 19mer siRNA (CHK-AZ) was compared with the same sequence where 2Gems were added at the 3′ end of the SS (poly-2), 4GEMs were added (poly-4) or 6 GEMs were added (poly-6). These sequences were compared with gemcitabine alone (GEM). The experiment was performed by transfection of the siRNAs in BxPC3 cells as for FIG. 1 but the exposure time prior to measurement of cell viability was 120 h. […]

BxPC3 cells [5] = assay: Screen of siRNA sequences designed against CHK1: % viable cells 72 h after transfection, BxPC3
Procedure: (§2) The percentage of viable cells 72 h after transfection of the siRNA sequences into cells in culture is shown (top panel—BxPC3 cells; lower panel—CFPAC cells). 100% viability is defined as that in the presence of a NON-silencing control siRNA (NS). CHK1_AZ (AZ) was tested as a comparator. CD=Cell Death siRNAs—known to produce maximal killing of many cell types when transfected into cells.

CFPAC cells = assay: Screen of siRNA sequences designed against CHK1: % viable cells 72 h after transfection, CFPAC
Procedure: as §2

CHK1 = assay: siRNA validation of target silencing (qRTPCR); conditions: previous studies
Procedure: These experiments were performed using the siRNAs shown below. The degree of gene target silencing was measured in cells transfected with the siRNAs at (50 nM) and the degree of gene silencing was measured using qRTPCR (using Beta-actin as a control housekeeping gene for normalization of the data).

With `Nc1ccn([C@@H]2O[C@H](CO)[C@@H](O)C2(F)F)c(=O)n1` [gemcitabine, 2′,2′-difluoro 2′-deoxycytidine, reference compound] the viability at 0.05 µM (BxPC3 cells [1]; 50 nM) was 26%, the IC50 (BxPC3 cells [1]; no Lipofectamine, read-out: IC50, reduction in cell viability) was roughly 7 nM and the IC50 ([2]; Homo sapiens, BXPC-3) was roughly 5 nM. The “maximal efficacy, inhibition of cell viability” value ([2]; human, 120 h, 100 nM) was ~ 85%, the “maximal efficacy (reduction/inhibition of cell viability, cell killing)” value (BxPC3 cells [3]; BxPC3, 96 h) was greater than 80% and the IC50 (BxPC3 cells [3]; Homo sapiens, BXPC-3, BxPC3, 96 h) was roughly 6 nM. The inhibition at 0.1 µM (MiaPaca-2; Homo sapiens, MIA PaCa-2, 100 nM, read-out: maximal inhibition at 100 nM) was 90%, the “reduction in cell viability at concentrations above 50 nM” value (BxPC3 cells [4]; BxPC3, 120 h, >50 nM) was 100% and the IC50 (BxPC3 cells [4]; Homo sapiens, BXPC-3, BxPC3, 120 h exposure) was 3 nM.
In the case of “CHK_4: siRNA designed against CHK1, sense strand CCTGTGGAATAGTACTTACTGCAAT (SEQ ID NO: 9); same sequence as SLP49-1 (antisense strand not cited, further chemistry not given here)”, the “potency on BxPC3 cell viability” value (BxPC3 cells [5]) is reported as “most potent effect; also recorded: greater potency than CHK-AZ”, the “% viable BxPC3 cells at 72 h” value (BxPC3 cells [5]; 100% = non-silencing control siRNA) is reported as 24% and the “potency on BxPC3 cell viability” value (BxPC3 cells [5]; listed as #4) is reported as “#4 sequence CCTGTGGAATAGTACTTACTGCAAT (SEQ ID NO: 9) seemed to be the best”. The “effect on CFPAC cell viability” value (CFPAC cells) was “very pronounced effect on cell viability” and the “silencing of CHK1 gene” value (CHK1) was “better silencing than the Azorsa sequence”.
With “SLP49-1: Unmodified 25mer blunt ended CHK1 siRNA, sense CCUGUGGAAUAGUACUUACUGCAAU (SEQ ID NO: 18) (antisense AUUGCAGUAAGUACUAUUCCACAGG; unmodified RNA)” the “Efficacy at 100 nM” value ([2]; BxPC3, 120 h, 100 nM) was 90%, the IC50 [2] was 0.25 nM and the “inhibition of cell viability at 100 nM” value (BxPC3 cells [3]; BxPC3, 96 h, 100 nM) was ~ 90%. For the same compound, the IC50 (BxPC3 cells [3]; BxPC3, 96 h) was roughly 0.3 nM, the “maximal inhibition of cell viability” value (MiaPaca-2; listed as 25mer blunt ended siRNA designed against CHK1) was ~ 80% and the “maximal inhibition of cell viability” value (MiaPaca-2; listed as Chk1_de) was 80%.
“SLP49-2: 25mer CHK1 siRNA with 2 GEMs attached at the 3′ end of the Sense Strand (SEQ ID NO: 19) (sense CCUGUGGAAUAGUACUUACUGCAAUCC; antisense AUUGCAGUAAGUACUAUUCCACAGG; 25mer siRNA, two gemcitabine nucleotides added at sense strand 3' end, further chemistry not given here)” was tested, and the “efficacy (inhibition of cell viability / cell killing) at 30 nM” value [2] was ~ 100%, the “inhibition in cell viability at 0.1 nM” value (BxPC3 cells [3]) was 31% and the “maximal inhibition at 10 nM” value (MiaPaca-2; 10 nM) was ~ 100%.
With “SLP49-3: Unlabeled 25mer blunt ended siRNA against RAD17, sense CCAACAAUUAUGAUGAAAUUUCUUA (SEQ ID NO: 23) (antisense UAAGAAAUUUCAUCAUAAUUGUUGG; further chemistry not given here)” the “maximal efficacy, inhibition of cell viability” value [2] was 60%, the IC50 [2] was roughly 4 nM and the “maximal efficacy (reduction/inhibition of cell viability, cell killing)” value (BxPC3 cells [3]; BxPC3, 96 h) was 60%. For the same compound, the “maximal efficacy (reduction/inhibition of cell viability, cell killing)” value (BxPC3 cells [3]; BxPC3, 96 h, listed as RAD17 siRNA) was ~ 60%, the IC50 (BxPC3 cells [3]; BxPC3, 96 h) was roughly 5 nM and the “maximal inhibition of cell viability” value (MiaPaca-2; listed as RAD17 siRNA) was ~ 30%. For the same compound, the “maximal inhibition of cell viability” value (MiaPaca-2; listed as unmodified 25mer siRNA targeting RAD17) was ~ 25%.
In the case of “SLP49-4: RAD17 25mer siRNA with 2 additional GEMs attached at the 3′ end of the SS (SEQ ID NO: 24) (sense CCAACAAUUAUGAUGAAAUUUCUUACC; antisense UAAGAAAUUUCAUCAUAAUUGUUGG; 25mer siRNA, two gemcitabine nucleotides added at sense strand 3' end, further chemistry not given here)”, the “efficacy (inhibition of cell viability / cell killing) at 30 nM” value [2] is reported as 100%, the IC50 [2] is reported as roughly 4 nM and the “inhibition in cell viability at 0.1 nM” value (BxPC3 cells [3]) is reported as “no effect on cell viability”. The “inhibition at 30 nM” value (MiaPaca-2; 30 nM) was 93%.
With “SLP49-5: CHK1 siRNA, SS shortened by first 2 bases, 3 GEMs in place of Cs (SEQ ID NO: 20) (sense UGUGGAAUAGUACUUACUGCAAU; antisense AUUGCAGUAAGUACUAUUCCACAGG; three gemcitabines replace cytidines in sense strand, positions not given here)” the “efficacy (inhibition of cell viability / cell killing) at 30 nM” value [2] was 83-97% and the IC50 [2] was roughly 3 nM.
For “SLP49-6: CHK1 siRNA, SS shortened by first 2 bases, containing 2 Gems (SEQ ID NO: 21) (sense UGUGGAAUAGUACUUACUGCAAUCC; antisense AUUGCAGUAAGUACUAUUCCACAGG; sense strand contains two gemcitabines, positions not given here, further chemistry not given here)”, the “efficacy (inhibition of cell viability / cell killing) at 30 nM” value [2] was 83-97% and the IC50 [2] was roughly 3 nM.
